Patent publication US9138393B2, “Cosmetic compositions containing substituted azole and methods for improving the appearance of aging skin” (The Proctor & Gamble Company, priority 2013, dated 2015)

Assays:
CYP3A4 = CYP3A4 (Homo sapiens (Human), UniProt P08684); assay: In vitro CYP3A4 inhibition assay (P450-GLO Assay kit, Promega)
Excerpt: The metabolism of retinoic acid and vitamin D in the skin is incompletely understood, but there is evidence for the involvement of CYP26A1, CYP3A4 and CYP2C8 in catalyzing the 4-hydroxylation of all-trans RA to 4-hydroxy-RA. It is believed, without being limited by theory, that CYP3A4 may be particularly important for ATRA metabolism in the skin. This is because CYP3A4 is expressed in skin, involved in RA metabolism, a CYP with one of the broadest substrate specificities of all of the known CYPs and available as a human recombinant protein in a commercial kit. Thus, a commercially available CYP3A4 assay was used as a surrogate to predict RAMBA potential in the skin.
The commercially available P450-GLO™ Assay kit (Promega Corporation, Madison Wis.) was used to screen various compounds for potential CYP activity, specifically CYP3A4A inhibition activity. CYP3A4A is thought to be among the primary CYP isoforms responsible for retinoic acid metabolism in the skin.
A commercially available P450-GLO™ Assay kit (Promega Corporation, Madison Wis.) is used to screen various compounds for CYP3A4A inhibition activity. CYP3A4A is thought to be one of the primary CYP isoforms responsible for retinoic acid metabolism in the skin.

[1] = test system: ATRA 4-hydroxylase (CYP) activity; assay: in vitro; conditions: pig, pH 7.4
Excerpt: (§1) Cytochrome P450 is a large and diverse group of enzymes that catalyze the oxidation of organic substances. […] Applicant evaluated the potential RAMBA activity of several azoles using pig liver microsomes, a rich source of CYP activity, comprising many different CYP 450 isoforms. […] As understanding in this area has progressed, a more specific CYP inhibition assay can be used to provide better predictivity of activity in human skin. Nevertheless, this assay may still be used as a general predictor of overall CYP activity.
(§2) All procedures were carried out under minimal light in order to prevent degradation of the retinoid samples.
(§3) Microsomal preparation: One lobe of fresh pig liver is obtained (e.g., at about the time of slaughter from a food-processing company) and immediately placed in ice cold 15 mM KH2PO4/250 mM sucrose (pH 7.4) and kept on ice during transportation. A 10 g sample of liver is minced and homogenized in 30 mL of homogenization buffer (15 mM KH2PO4/250 mM sucrose) using a Tekmar homoginizer or equivalent by pulsing 3 times with 20 second pulses. […] The remaining pig liver may be stored at −80° C. The homogenates from the 8 samples are pooled and centrifuged at 13,000×g for 20 minutes at 4° C. to remove crude debris. The supernatant is further centrifuged at 100,000×g for 70 minutes at 4° C. The microsomal pellets are re-suspended into 50 mL of 150 mM KH2PO4/1 mM DTT (pH 7.4) and 1 mL aliquots are stored at −80° C.
(§4) 100-150 μg of pig liver microsomal protein in 150 mM KH2PO4 is incubated at 37° C. in the presence of radiolabeled ATRA and 5 mM NADPH for 90 min. The final ATRA concentration is 1 μM, as a combination of [20-Methyl-^3H]ATRA and unlabeled ATRA. Initially, radiolabeled ATRA may be used to assist in validating the method. Once retention times of retinoid metabolites are identified, unlabeled ATRA is used for screening. Compounds tested as possible competitive substrates are added to the assay 10 min prior to the addition of ATRA. Ethanol, containing 0.1% butylated hydroxytoluene (BHT) as an antioxidant, is used to stop the reactions. For recovery of ATRA the pH of reactions are adjusted to 3.0 before extraction with 0.1N HCl. Retinoids are extracted from the protein aqueous phase with 4 mL hexane, 1 ml 100 μg/ml BHT in water (pH 3). An additional 4 mL of hexane (pH 3) is used for a second extraction. The organic extractions are pooled, evaporated to dryness using a speed vac, and resuspended in 62.5 μl acetonitrile containing 1 mg/ml BHT. Samples are analyzed by HPLC.HPLC separation of retinoids. […] Mobile phases used for gradient elution of retinoids are those of Duell et al., J. Clin. Invest. […] Mobile phase A is acetonitrile:0.02 M ammonium acetate:acetic acid (1:1:0.01) and mobile phase B is acetonitrile:0.2M ammonium acetate:acetic acid (19:1:0.008). At the start of the HPLC run, solvent A is run 100% followed by a linear gradient to solvent B at 3 minutes, a shallow gradient to 81% solvent B at 38 minutes, and 100% solvent B at 40 minutes. […] Effluent from the HPLC column flows directly into a flow-through scintillation spectrometer […]. Because of the sensitivity limitations of the β-RAM spectrometer, it is not used to quantitate peak areas but rather to confirm ATRA and ATRA 4-hydroxylase activity. Calculated peaks areas (using Millenium software—Waters Corp.) of ATRA and ATRA metabolites are used to quantify relative activity levels.

facial skin = assay: Method of treatment: topical application to the face, appearance of aging skin; type: in vivo, human; conditions: 0.55% by weight in a vehicle, entire face, one to two times a day for 8 weeks
Excerpt: A test subject topically applies a composition comprising 0.55% 1-phenylimidazole, by weight in a vehicle, to the entire face one to two times a day for 8 weeks.

[2] = test system: ATRA 4-hydroxylase (CYP) activity of pig liver microsomes; assay: In vitro ATRA 4-hydroxylase activity assay to determine CYP inhibition (pig liver microsomes); conditions: pig liver microsomes
Excerpt: as §1, §2, §3, §4

[3] = human recombinant CYP3A4, P450-GLO kit
[4] = read-out: hit / no hit (CYP3A4 inhibition), human recombinant CYP3A4, P450-GLO kit

Sequence of CYP3A4 (P08684 whole entry): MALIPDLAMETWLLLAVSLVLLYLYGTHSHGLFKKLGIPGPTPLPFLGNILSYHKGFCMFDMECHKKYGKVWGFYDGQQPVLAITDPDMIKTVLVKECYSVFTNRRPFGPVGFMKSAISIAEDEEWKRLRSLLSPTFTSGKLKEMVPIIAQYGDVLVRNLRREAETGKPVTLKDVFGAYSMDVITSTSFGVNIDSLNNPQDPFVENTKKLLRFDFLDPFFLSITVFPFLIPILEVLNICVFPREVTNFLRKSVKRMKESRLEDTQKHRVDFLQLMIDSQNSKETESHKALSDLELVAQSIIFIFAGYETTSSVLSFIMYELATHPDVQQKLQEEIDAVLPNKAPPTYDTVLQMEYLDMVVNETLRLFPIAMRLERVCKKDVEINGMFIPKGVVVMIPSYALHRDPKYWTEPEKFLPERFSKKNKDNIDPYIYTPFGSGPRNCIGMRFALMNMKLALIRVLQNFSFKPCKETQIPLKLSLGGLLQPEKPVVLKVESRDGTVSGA

| Compound | IC50 (CYP3A4; [3]) [µM] | IC50 (CYP3A4; [4]) [µM] | IC50 (CYP3A4; human, recombinant enzyme) [µM] | other results |
| --- | --- | --- | --- | --- |
| CC(=O)n1ccnc1 [1-Acetylimidazole] | > 10 | > 10 | – | – |
| Cn1ccnc1 [1-Methylimidazole] | – | – | > 10 | – |
| C=Cn1ccnc1 [1-Vinylimidazole] | > 10 | > 10 | – | – |
| Cc1nccn1Cc1ccccc1 [1-benzyl-2-methylimidazole] | – | – | – | IC50 at 90 min [1]: 308 µM |
| c1ccc(Cn2ccnc2)cc1 [1-benzylimidazole] | – | – | – | IC50 [1]: 77.5 µM |
| c1ccc(-n2ccnc2)cc1 [1-phenylimidazole] | 1 | – | – | IC50 (CYP3A4): < 10 µM; inhibitory activity in the CYP3A4 assay (in words) (CYP3A4): showed inhibitory activity; appearance of aging facial skin after treatment (facial skin): facial skin feels and appears less aged; IC50 [1]: 52.5 µM; CYP inhibitory activity (in words) [2]: elicit CYP inhibitory activity |
| O=C(n1ccnc1)n1ccnc1 [1′-1-Carbonylimidazole] | > 10 | > 10 | – | – |
| Clc1ccccc1-c1nc2ccccc2[nH]1 [2-(2-Chlorophenyl) benzimidazole] | > 10 | > 10 | – | – |
| CCCCc1nc(C=O)c(Cl)[nH]1 [2-Butyl-4-chloro-5-formylimidazole] | – | – | > 10 | – |
| CCc1nc(C)c[nH]1 [2-Ethyl-4-methyl-imidazole] | > 10 | > 10 | – | – |
| CCc1ncc[nH]1 [2-Ethylimidazole] | – | – | > 10 | – |
| Cc1ncc[nH]1 [2-Methylimidazole] | > 10 | > 10 | – | – |
| c1ccc(-c2ncc[nH]2)cc1 [2-phenylimidazole, 2-Phenylimidazole] | > 10 | > 10 | – | inhibitory activity in the CYP3A4 assay (in words) (CYP3A4): did not; IC50 [1]: > 500 µM; CYP inhibitory activity (in words) [2]: lacked any significant inhibitory activity |
| c1ccc(-c2nc[nH]c2-c2ccccc2)cc1 [4,5-diphenylimidazole] | – | – | – | IC50 at 90 min [1]: 100 µM |
| CC(=O)c1ccc(-n2ccnc2)cc1 [4′-(Imidazol-1 yl) acetophenome] | – | – | – | IC50 (CYP3A4): < 10 µM |
| Clc1ncnc2[nH]cnc12 [6-Chloropurine] | – | – | > 10 | – |
| Nc1nc[nH]n1 [Amitrol] | – | – | > 10 | – |

| Compound | IC50 (CYP3A4; [3]) [µM] | IC50 (CYP3A4; [4]) [µM] | IC50 (CYP3A4; human, recombinant enzyme) [µM] | other results |
| --- | --- | --- | --- | --- |
| CCCCNC(=O)n1c(NC(=O)OC)nc2ccccc21 [Benomyl] | > 10 | > 10 | – | – |
| c1ccc2[nH]cnc2c1 [Benzimidazole] | > 10 | > 10 | – | – |
| CC1=N[C@H](C(=O)O)CCN1 [Ectoine] | – | – | > 10 | – |
| c1coc(-c2nc3ccccc3[nH]2)c1 [Fuberidazole] | > 10 | > 10 | – | – |
| CC(NC(=O)[C@@H](N)CCC(=O)O)c1ncc[nH]1 (stereo partly shown) [Glutamylamidoethyl imidazole] | – | – | > 10 | – |
| N=C(N)c1ccc(OCCCCCCOc2ccc(C(=N)N)cc2)cc1 [Hexamidine diisethionate] | > 10 | > 10 | – | – |
| N[C@@H](Cc1c[nH]cn1)C(=O)O [Histidine] | – | – | > 10 | – |
| N[C@@H](Cc1c[nH]c2ccccc12)C(=O)O [L-Tryptophan] | – | – | > 10 | – |
| c1ccc(-c2n[nH]cc2-c2ccnc3ccccc23)nc1 [LY-364947] | – | – | > 10 | – |
| Cc1cccc(C)c1N(Cn1cccn1)C(=O)CCl [Metazachlor] | > 10 | > 10 | – | – |
| Cc1ccc2cc3c(ccc4ccccc43)c3c2c1CC3 [Methyl- cholanthrene] | > 10 | – | – | hit / no hit (CYP3A4 inhibition) (CYP3A4; [3]): Near Hit |
| CCc1cccc(C)c1N(C(=O)CCl)C(C)COC (stereo not shown) [Metolachlor] | – | – | – | IC50 (CYP3A4): > 10 µM |
| CC(C)(C(=O)c1cccnc1)c1cccnc1 [Metyrapone] | – | – | – | IC50 (CYP3A4): < 10 µM |
| NCCCn1ccnc1 [N-(3-Aminopropyl) imidazole] | – | – | > 10 | – |
| O=C(/C=C/C=C/c1ccc2c(c1)OCO2)N1CCCCC1 [Piperine] | – | – | < 10 | – |
| Cn1c(=O)c2[nH]cnc2n(C)c1=O [Theophylline] | – | > 10 | – | – |
| CC(=O)/C=C/C1=C(C)CCCC1(C)C [β-Ionone] | – | – | > 10 | – |
